Assay results reported in patent US6462037B1, “1,4-benzodiazepin-2-ones useful as HIV reverse transcriptase inhibitors” (Bristol-Myers Squibb Pharma Company, priority 1999, dated 2002).
Converted amounts (≈) assume the structure as drawn.

Tested on: not given
Assay: not given
Conditions: not given

SMILES | melting point
CCCCC1(C(F)(F)F)c2cc(Cl)ccc2NC(=O)CN1c1ccccc1 (stereo not drawn) [compound 159, 7-Chloro-4-phenyl-5-butyl-1,5-dihydro-5-(trifluoromethyl)-1,4-benzodiazepin-2-one] | 177 to 178 °C
COc1ccc(OC)c(CN2CC(=O)Nc3ccc(Cl)cc3C2C(F)(F)F)c1 (stereo not drawn) [compound 144, 7-Chloro-4-(2,5-dimethoxybenzyl)-1,5-dihydro-5-(trifluoromethyl)-1,4-benzodiazepin-2-one] | 182 to 183 °C
CCC(C)CCN1CC(=O)Nc2ccc(Cl)cc2C1C(F)(F)F (stereo not drawn) [compound 125, 7-Chloro-4-(3-methylpentyl)-1,5-dihydro-5-(trifluoromethyl)-1,4-benzodiazepin-2-one] | 66 to 67 °C
CCCCCN1CC(=O)Nc2ccc(Cl)cc2C1C(F)(F)F (stereo not drawn) [compound 108, 7-Chloro-4-pentyl-1,5-dihydro-5-(trifluoromethyl)-1,4-benzodiazepin-2-one] | 114 to 115 °C

The next lines start with the values.

melting point | SMILES
115 to 120 °C | CCCCCCC1(C(F)(F)F)N=CC(=O)Nc2ccc(Cl)cc21 (stereo not drawn) [compound 192, 7-Chloro-5-hexyl-1,5-dihydro-5-(trifluoromethyl)-1,4-benzodiazepin-2-one]
146 to 148 °C | CC1=NC(CCC2CC2)(C(F)(F)F)c2cc(Cl)ccc2NC1=O (stereo not drawn) [compound 194, 7-Chloro-3-methyl-5-(2-cyclopropylethyl)-1,5-dihydro-5-(trifluoromethyl)-1,4-benzodiazepin-2-one]
184 to 186 °C | O=C1CN(Cc2cccc(Cl)n2)C(C(F)(F)F)c2cc(Cl)ccc2N1 (stereo not drawn) [compound 105, 7-Chloro-4-(6-chloro-2-pyridylmethyl)-1,5-dihydro-5-(trifluoromethyl)-1,4-benzodiazepin-2-one]
121 to 123 °C | O=C1CN(CC#CC2CC2)C(C(F)(F)F)c2cc(Cl)ccc2N1 (stereo not drawn) [compound 127, 7-Chloro-4-(3-cyclopropyl-2-propynyl)-1,5-dihydro-5-(trifluoromethyl)-1,4-benzodiazepin-2-one]

Tested on: HIV-1 (RF)
Assay: HIV RNA assay: microplate based compound evaluation in HIV-1 infected MT-2 cells
Format: cell-based
Conditions: Human immunodeficiency virus 1, MT2, 72 h; HIV-1 (RF) infected MT-2 cells, 3 days of culture; virus inoculum standardised to this value; read-out: IC90 value (concentration of compound required to reduce the HIV RNA level by 90%)
Method: MT-2 and MT-4 cells were maintained in RPMI 1640 supplemented with 5% fetal calf serum (FCS) for MT-2 cells or 10% FCS for MT-4 cells, 2 mM L-glutamine and 50 μg/mL gentamycin, all from Gibco. HIV-1 RF was propagated in MT-4 cells in the same medium. Virus stocks were prepared approximately 10 days after acute infection of MT-4 cells and stored as aliquots at −70° C. Infectious titers of HIV-1 (RF) stocks were 1-3×10^7 PFU (plaque forming units)/mL as measured by plaque assay on MT-2 cells (see below). Each aliquot of virus stock used for infection was thawed only once.
For evaluation of antiviral efficacy, cells to be infected were subcultured one day prior to infection. […]
Cell lysates or purified RNA in 3 M or 5 M GED were mixed with 5 M GED and capture probe to a final guanidinium isothiocyanate concentration of 3 M and a final biotin oligonucleotide concentration of 30 nM. […] Immobilized alkaline phosphatase activity was detected by addition of 100 μL of 0.2 mM 4-methylumbelliferyl phosphate (MUBP, JBL Scientific) in buffer δ (2.5 M diethanolamine pH 8.9 (JBL Scientific), 10 mM MgCl2, 5 mM zinc acetate dihydrate and 5 mM N-hydroxyethyl-ethylene-diamine-triacetic acid). […] Fluorescence at […] was measured using a microplate fluorometer (Dynateck) exciting at […]. […]

IC90 | SMILES
0.2 µg/mL (≈ 0.947 µM) | Nc1ccn([C@H]2CC[C@@H](CO)O2)c(=O)n1 [ddC, 2′,3′-dideoxycytidine]
